Patent EP1333824B1, “TREATMENT OF SEXUAL DYSFUNCTION WITH BOMBESIN RECEPTOR ANTAGONISTS” (Warner-Lambert Company LLC, priority 2000, dated 2002)

Tests used:
[1] = test system: Female New Zealand rabbits; experiment: Pelvic nerve-stimulated female genital blood flow, anaesthetised rabbit model of sexual arousal; assay type: in vivo
Method: Female New Zealand rabbits (~2.5kg) were pre-medicated with a combination of Medetomidine (Domitor®) 0.5ml/kg i.m., and Ketamine (Vetalar®) 0.25ml/kg i.m. whilst maintaining oxygen intake via a face mask. The rabbits were tracheotomised using a Portex™ uncuffed endotracheal tube 3 ID., connected to ventilator and maintained at a ventilation rate of 30-40 breaths per minute, with an approximate tidal volume of 18-20 ml, and a maximum airway pressure of 10 cm H2O. Anaesthesia was then switched to Isoflurane and ventilation continued with O2 at 21/min. The right marginal ear vein was cannulated using a 23G or 24G catheter, and Lactated Ringer solution perfused at 0.5ml/min. The rabbit was maintained at 3% Isoflurane during invasive surgery, dropping to 2% for maintenance anaesthesia.
The left groin area of the rabbit was shaved and a vertical incision was made approximately 5cm in length along the thigh. The femoral vein and artery were exposed, isolated and then cannulated with a PVC catheter (17G) for the infusion of drugs and compounds. Cannulation was repeated for the femoral artery, inserting the catheter to a depth of 10cm to ensure that the catheter reached the abdominal aorta. This arterial catheter was linked to a Gould system to record blood pressure. Samples for blood gas analysis were also taken via the arterial catheter. Systolic and diastolic pressures were measured, and the mean arterial pressure calculated using the formula (diastolic x2 + systolic) ö3. Heart rate was measured via the pulse oxymeter and Po-ne-mah data acquisition software system (Ponemah Physiology Platform, Gould Instrument Systems Inc). A ventral midline incision was made into the abdominal cavity. The incision was about 5cm in length just above the pubis. The fat and muscle was bluntly dissected away to reveal the hypogastric nerve which runs down the body cavity. It was essential to keep close to the side curve of the pubis wall in order to avoid damaging the femoral vein and artery which lie above the pubis. The sciatic and pelvic nerves lie deeper and were located after further dissection on the dorsal side of the rabbit. Once the sciatic nerve is identified, the pelvic nerve was easily located. The term pelvic nerve is loosely applied; anatomy books on the subject fail to identify the nerves in sufficient detail. However, stimulation of the nerve causes an increase in vaginal and clitoral blood flow, and innervation of the pelvic region. The pelvic nerve was freed away from surrounding tissue and a Harvard bipolar stimulating electrode was placed around the nerve. […] A frequency response curve was determined at the start of each experiment in order to determine the optimum frequency to use as a sub-maximal response, normally 4Hz. […]

conscious male rat = experiment: Penile intracavernosal pressure in the conscious male rat (telemetry); assay type: in vivo
Method: In addition to treating women with FSD, bombesin antagonists will be useful in treating male erectile dysfunction (MED. Both the non-selective BB1/2 antagonists (Compound 1; 10mg/kg sc) and the selective BB1 receptor antagonist (Compound 3; 15mg/kg sc) is pro-erectile in a conscious rat model of penile erection (Figures 24 and 25). Erectile responses were recorded by measuring intracavernosal pressure using surgically implanted telemetric device. The specific details the surgical procedures, data acquisition and analysis can be found in detail in Bemabe 1999.
Compound 1 and compound 3 were dissolved in 50% β-cyclodextrin in saline. They were administered at a dose of 15mg/kg subcutaneously (sc). […] These increases equate to penile erection. Both Compounds 1 and 3 induced a number of erections in a similar manner to those observed with apomorphine or melanotan-II - both of which are clinically proven agents that are effective in the treatment of MED. Moreover the amplitude of the increases observed were similar to those observed with apomorphine or melanotan-II. The mechanism of action is thought to be similar to the effects on female genital flow ie CNS potentiation of the descending neuronal pathways that control penile erection.

[2] = test system: Ovariectomised adult female Sprague Dawley rats; experiment: Female rat sexual receptivity test (lordosis quotient, LQ); assay type: in vivo; details: for lordosis quotient (LQ): quinelorane 6.25µg/kg s.c. 90min
Method: Ovariectomised adult female Sprague Dawley rats (180-200g, from Charles River) were housed in groups of 6 in a reversed lighting system of 12h light:dark (lights off 7.00-19.00h). Two weeks after ovariectomy they were used for sexual activity tests. The experiments started at least 5h into the dark period.
It was administered intraperitoneally (i.p.) at a dose of 10mg/kg, in a dosing volume of 1ml/kg. […] Forty eight hours before testing, ovariectomised female rats (as described above), were primed with 5µg oestradiol benzoate dissolved in corn oil and injected subcutaneously. […] The females were placed with a series of vigorous male rats and subjected to 10 mounts.
The lordotic response of the animal was recorded and expressed as a percentage of the mounts (i.e. lordosis quotient, LQ), as previously described. Animals showing LQ<20 were considered non-receptive and were included in the study. Each rat was tested prior to administration of the compound and then tested similarly post-injection.
The above compound was dissolved in PEG200 vehicle and administered orally. […] Both compounds were administered in a 1ml/kg volume.
Forty eight hours before tests, the animals were primed with 5µg oestradiol benzoate (Sigma Chemical. Co. Ltd., UK) dissolved in corn oil and injected subcutaneously. The females were placed with a series of vigorous male rats and subjected to 10 mounts. The lordotic response of the animal was recorded and expressed as a percentage of the mounts (i.e. lordosis quotient, LQ). […] Animals showing higher LQ were not included in the study. Each rat was tested prior to administration of the compound and then tested similarly at 1h and 90min post-injection of the above compound or quinelorane respectively.

[3] = test system: Ovariectomised adult female Sprague Dawley rats; experiment: Female rat sexual proceptivity test (time investigating male vs female stimulus); assay type: in vivo
Sprague Dawley male rats [4] = experiment: Sexual behaviour of normal (sexually vigorous) male rats; assay type: in vivo, rat; details: Compound (1) 15mg/kg or Fluoxetine 20mg/kg i.p. 1h before tests, vs vehicle
Method: Sprague Dawley male rats (Charles River, UK) were kept, 4 rats per cage, in a reversed lighting regime (12:12 hours, lights off at 5.00 h), with free access to food and water. The rats were pre-selected by being presented with a receptive female at 4 days intervals, i.e. every third day (having 2 clear days between presentations) until completing 6-7 days of baseline determination. The animals showing consistently vigorous behaviour (ejaculatory latencies <300s) were chosen for further experiments (n=24). Animals were randomised into three groups. All animals received all three treatments following a latin-square design. Treatments were administered once a week, with a baseline test in between treatments (4 days intervals between baseline and test day). […] All treatments were administered i.p. in a 1ml/kg volume, 1h before tests.
For all the sexual behaviour tests, the males were placed in an observation arena (50-60 cm diameter), starting 5 hours into the dark cycle and observed under red illumination. Three to 4 minutes after placing the male in the arena, a receptive female (ovariectomised, bearing a 7 mm Silastic implant of oestradiol benzoate) was introduced to the arena and the following parameters noted: Mount Latency: time (in seconds) taken between introduction of female and first mount. A maximum time of 15 minutes (900 seconds) was allowed, and the test terminated if no mounts were recorded within that time (Figure 11), Intromission Latency: time (in seconds) taken between introduction of female and first intromission (Figure 12), Number of Mounts: to reach ejaculation. When ejaculation was not reached, the number of mounts was not analyzed, Number of Intromissions: to reach ejaculation. When ejaculation was not reached, the number of intromissions was not analyzed (Figure 13 is number of mounts + intromissions), Ejaculation Latency: time (in seconds) taken from first intromission to ejaculation. A maximum time of 30 minutes (1800 seconds) was given, and the test terminated if ejaculation was not achieved in that time (Figure 14), and Refractory Period: time (in seconds) taken from ejaculation to the first mount of the next series of sexual activity. In those animals reaching ejaculation the test was terminated at the end of the refractory period, as indicated by the first mount of the next sexual cycle (Figure 15).
A one-way ANOVA followed by Dunnett's t test was used to compare treated vs vehicle groups each day of testing, for all the sexual behaviour parameters.

Sprague Dawley male rats [5] = experiment: Sexual behaviour of fluoxetine-induced sexually dysfunctional male rats; assay type: in vivo, rat; details: fluoxetine 20mg/kg i.p. 3 days (vs vehicle+vehicle)
Method: Sprague Dawley male rats (Charles River, UK) were kept, 4 rats per cage, in a reversed lighting regime (12:12 hours, lights off at 5.00 h), with free access to food and water. The rats were pre-selected by being presented with a receptive female at 4 days intervals, i.e. every third day (having 2 clear days between presentations) until completing 6-7 trials of baseline determination. The animals showing consistently vigorous behaviour (ejaculatory latencies <300s) were chosen for further experiments. Animals were treated for 3 consecutive days with either vehicle (water) or fluoxetine (20mg/kg, i.p., in a 2ml/kg dosing volume). […] All treatments were administered i.p. in a 1ml/kg volume, 1h before tests.
For all the sexual behaviour tests, the males were placed in an observation arena (50-60 cm diameter), starting 5 hours into the dark cycle and observed under red illumination. Three to 4 minutes after placing the male in the arena, a receptive female (ovariectomised, bearing a 7 mm Silastic implant of oestradiol benzoate) was introduced to the arena and the following parameters noted: Mount Latency: time (in seconds) taken between introduction of female and first mount. A maximum time of 15 minutes (900 seconds) was allowed, and the test terminated if no mounts were recorded within that time (Figure 16), Ejaculation Latency: time (in seconds) taken from first intromission to ejaculation. A maximum time of 30 minutes (1800 seconds) was given, and the test terminated if ejaculation was not achieved in that time (Figure 17), Percentage of males achieving ejaculation within 30 minutes was calculated (Figure 18).
A one-way ANOVA followed by Dunnett's t test was used to compare the fluoxetine+vehicle group and other groups for mount and ejaculatory latencies. Percentage of animals ejaculating was analysed using a Chi-square test followed by Fisher's test. (*: P<0.05, **: P<0.01, ***: P<0.001; n=15-19).

[6] = Example 31, after vs before administration, Compound (2) oral 10-100mg/kg in PEG200, 1h
[7] = day 4 Compound (1) 15mg/kg or yohimbine 2mg/kg i.p. 1h before tests (vs fluoxetine+vehicle)

Structure (SMILES): C[C@@](Cc1c[nH]c2ccccc12)(NC(=O)Nc1ccc([N+](=O)[O-])cc1)C(=O)NCC1(c2ccc(N)cc2)CCCCC1 [Compound 3, (2S)-N-{[1-(4-aminophenyl)cyclohexyl]methyl}-3-(1H-indol-3-yl)-2-methyl-2-{[(4-nitroanilino)-carbonyl]amino}propanamide]
- basal genital blood flow in the absence of PNS ([1]; 15mg/kg sc): no effect
- pelvic-nerve stimulated (PNS) increases in genital (vaginal and clitoral) blood flow ([1]; 15mg/kg sc in 50% β-cyclodextrin in saline): potent enhancer
- erectile response (penile erection) (conscious male rat; Compound 1 10mg/kg sc, Compound 3 15mg/kg sc): pro-erectile
- intracavernosal pressure (conscious male rat; one hour after 10mg/kg sc Compound 1, 45 minutes after 15mg/kg sc compound 3): significant increases in intracavernosal pressure

Structure (SMILES): COc1ccc(C2(CNC(=O)[C@](C)(Cc3c[nH]c4ccccc34)Nc3nc(-c4ccc([N+](=O)[O-])cc4)co3)CCCCC2)nc1 [Example 9, (S)-3-(1H-Indol-3-yl)-N-[1-(5-methoxy-pyridin-2-yl)-cyclohexylmethyl]-2-methyl-2-[4-(4-nitro-phenyl)-oxazol-2-ylamino]-propionamide]
- lordosis quotient (LQ) [2, 6]: increased the LQ
- minimal effective dose ([2]; Rattus norvegicus, Example 31, single oral administration in PEG200, 1h after administration, P<0.01, read-out: MED (increase in LQ)): 100 mg/kg
- MED (increase in percentage of time spent investigating the male stimulus) ([3]; Example 29, oral, 30-100mg/kg in PEG 200 vehicle, 1h before test): 100 mg/kg
- percentage of time spent investigating the male stimulus ([3]; Example 29, oral, dose-dependent 30-100mg/kg in PEG 200, 1h before test): increased the percentage of time spent investigating the male stimulus
- increase in potency compared to the oral results obtained in the PEG200 vehicle ([3]; Example 30, methyl cellulose MED vs PEG200 MED): 10 fold
- MED (increase in percentage of time spent investigating the male stimulus) ([3]; Example 30, p.o., 3-30mg/kg in 0.5% methyl cellulose, 1h before tests): 10 mg/kg
- percentage of time spent investigating the male stimulus ([3]; Example 30, p.o., dose-dependent 3-30mg/kg in 0.5% methyl cellulose): increased the percentage of time spent investigating the male stimulus

Structure (SMILES): CNCCC(Oc1ccc(C(F)(F)F)cc1)c1ccccc1 (stereo not drawn) [fluoxetine, reference compound]
- Ejaculation latency (Sprague Dawley male rats [4]): also increased
- Intromission latency (Sprague Dawley male rats [4]): significantly increased
- Mount latency (Sprague Dawley male rats [4]): significantly increased
- Refractory period (Sprague Dawley male rats [4]): also increased
- number of mounts and intromissions required to achieve ejaculation (Sprague Dawley male rats [4]): No changes
- Ejaculation latency (Sprague Dawley male rats [5]; [7]): significantly increased
- Mount latency (Sprague Dawley male rats [5]; [7]): significantly increased
- percentage of animals ejaculating (Sprague Dawley male rats [5]; within 30 minutes, day 4 Compound (1) 15mg/kg or yohimbine 2mg/kg i.p. (vs fluoxetine+vehicle)): significantly lower

Structure (SMILES): CCCN1CCC[C@@H]2Cc3nc(N)ncc3C[C@H]21 [quinelorane, reference compound]
- lordosis quotient (LQ) ([2]; Example 2, after vs before administration (paired t test), Compound (1) 10mg/kg i.p. 1h): significantly (P<0.01) increased the LQ
- lordosis quotient (LQ) [2, 6]: significantly (P<0.01) increased the LQ
